Read-outs that look alike come from different tables or passages of the source.
Legend:
[1] = test system: NCI-H1650 cells; test: Soft-agar colony formation assay; type: cell-based; details: Homo sapiens, 168 h; NCI-H1650 cells in soft agar, one week, Alamar Blue; read-out: IC50, cell colony formation
Description: NCI-H1650 cells were plated in soft agar (Takara, Japan) at a density of 4000 cells/well in a 96-well plate. For the base layer, 1.2% agar stock solution was melted in an autoclave, cooled to 40°C in a water bath, and then mixed with RPMI1640 medium to obtain a solution of 0.6% agar in RPMI1640 containing 10% FBS. A cell suspension placed on the top layer was composed of RPMI1640 with 10% FBS and 0.4% agarose in each well. Then, the cells were incubated overnight. Compounds were added into the wells, and the NCI-H1650 cells were incubated for one week. After 7 days, alamar blue was added to the agar plate wells containing NCI-H1650 cell, and the plates were returned to the incubator. The fluorescence intensity (excitation 560 nm, emission 590 nm) was measured after 24 h.

[2] = molecular target: T1, JAK3 (Homo sapiens, UniProt P52333); test: Microfluidic mobility shift enzyme assay; type: biochemical
T1 construct: purchased Carna Bioscience, Inc. (Japan)
T1 sequence (P52333 1-1124): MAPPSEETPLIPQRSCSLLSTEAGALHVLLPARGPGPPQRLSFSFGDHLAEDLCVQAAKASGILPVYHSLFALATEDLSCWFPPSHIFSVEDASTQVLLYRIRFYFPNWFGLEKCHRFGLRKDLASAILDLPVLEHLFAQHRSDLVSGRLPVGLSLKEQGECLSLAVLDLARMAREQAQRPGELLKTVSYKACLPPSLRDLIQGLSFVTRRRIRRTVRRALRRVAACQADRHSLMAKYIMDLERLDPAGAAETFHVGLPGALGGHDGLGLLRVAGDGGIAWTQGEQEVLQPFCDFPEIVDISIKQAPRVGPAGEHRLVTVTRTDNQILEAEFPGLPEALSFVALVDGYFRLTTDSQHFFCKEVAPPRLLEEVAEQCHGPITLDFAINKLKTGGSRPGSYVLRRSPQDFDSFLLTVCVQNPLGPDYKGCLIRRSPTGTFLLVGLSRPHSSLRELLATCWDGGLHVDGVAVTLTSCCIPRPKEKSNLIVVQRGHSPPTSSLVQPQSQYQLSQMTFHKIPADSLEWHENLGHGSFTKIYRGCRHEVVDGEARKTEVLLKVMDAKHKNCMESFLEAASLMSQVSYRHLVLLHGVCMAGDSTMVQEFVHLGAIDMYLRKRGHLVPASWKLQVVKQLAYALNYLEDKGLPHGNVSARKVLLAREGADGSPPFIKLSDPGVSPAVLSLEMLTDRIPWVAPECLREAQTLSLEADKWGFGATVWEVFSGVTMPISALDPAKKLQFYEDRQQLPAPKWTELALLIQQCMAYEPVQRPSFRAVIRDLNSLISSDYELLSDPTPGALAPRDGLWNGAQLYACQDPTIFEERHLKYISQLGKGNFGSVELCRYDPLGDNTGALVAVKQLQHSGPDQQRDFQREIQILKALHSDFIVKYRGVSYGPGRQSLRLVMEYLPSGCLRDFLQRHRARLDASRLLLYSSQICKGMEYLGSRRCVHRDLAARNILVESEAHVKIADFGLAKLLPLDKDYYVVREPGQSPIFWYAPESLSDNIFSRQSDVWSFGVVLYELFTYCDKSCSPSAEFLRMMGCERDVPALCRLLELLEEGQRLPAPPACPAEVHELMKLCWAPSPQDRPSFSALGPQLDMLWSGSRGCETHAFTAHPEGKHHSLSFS
Description: (§1) The microfluidic mobility shift enzyme assay was performed in an on-chip incubation mode on a Caliper LabChip 2000 Drug Discovery System (Caliper Life Sciences, Hopkinton, MA). The extent of inhibition by the compounds is measured directly by quantifying the level of both unphosphorylated peptide substrate and phosphorylated product after electrophoretic separation using Caliper's LabChip assay technology. To evaluate the compounds for their target and the mechanism by which the compound affects JAK enzyme activity, the compounds were tested against JAK family kinases (JAK1, JAK2, JAK3, and Tyk2) with the Caliper microfluidic mobility-shift platform. The JAK family kinase enzymes and the FAM-labeled substrates were purchased from Carna Bioscience, Inc. (Japan) and Caliper Bioscience (US), respectively.
(§2) For JAK kinase activity measurement, the test compounds were diluted freshly with assay buffer (100 mM HEP ES, 10 mM MgCl2, 1.5 mM betaine, 0.015% Brij, and 25 mM β-glycerophosphate) and added to 384-well plates. FAM-labeled peptide substrate and ATP in assay buffer were added to the wells. After that, JAK enzymes prepared in assay buffer were also added to the wells and mixed to start the reaction. After a period of incubation at room temperature, the reaction was stopped by stop solution (500 mM EDTA). Finally, the plate was put on a Caliper LabChip 2000 system and a droplet of the reaction mixture was applied for electrophoretic separation in the chips of the machine. The enzyme conversion data then was read out for analysis.

[3] = molecular target: T2, JAK1 (Homo sapiens, UniProt P23458); test: Microfluidic mobility shift enzyme assay; type: biochemical
T2 construct: purchased Carna Bioscience, Inc. (Japan)
T2 sequence (P23458 whole entry): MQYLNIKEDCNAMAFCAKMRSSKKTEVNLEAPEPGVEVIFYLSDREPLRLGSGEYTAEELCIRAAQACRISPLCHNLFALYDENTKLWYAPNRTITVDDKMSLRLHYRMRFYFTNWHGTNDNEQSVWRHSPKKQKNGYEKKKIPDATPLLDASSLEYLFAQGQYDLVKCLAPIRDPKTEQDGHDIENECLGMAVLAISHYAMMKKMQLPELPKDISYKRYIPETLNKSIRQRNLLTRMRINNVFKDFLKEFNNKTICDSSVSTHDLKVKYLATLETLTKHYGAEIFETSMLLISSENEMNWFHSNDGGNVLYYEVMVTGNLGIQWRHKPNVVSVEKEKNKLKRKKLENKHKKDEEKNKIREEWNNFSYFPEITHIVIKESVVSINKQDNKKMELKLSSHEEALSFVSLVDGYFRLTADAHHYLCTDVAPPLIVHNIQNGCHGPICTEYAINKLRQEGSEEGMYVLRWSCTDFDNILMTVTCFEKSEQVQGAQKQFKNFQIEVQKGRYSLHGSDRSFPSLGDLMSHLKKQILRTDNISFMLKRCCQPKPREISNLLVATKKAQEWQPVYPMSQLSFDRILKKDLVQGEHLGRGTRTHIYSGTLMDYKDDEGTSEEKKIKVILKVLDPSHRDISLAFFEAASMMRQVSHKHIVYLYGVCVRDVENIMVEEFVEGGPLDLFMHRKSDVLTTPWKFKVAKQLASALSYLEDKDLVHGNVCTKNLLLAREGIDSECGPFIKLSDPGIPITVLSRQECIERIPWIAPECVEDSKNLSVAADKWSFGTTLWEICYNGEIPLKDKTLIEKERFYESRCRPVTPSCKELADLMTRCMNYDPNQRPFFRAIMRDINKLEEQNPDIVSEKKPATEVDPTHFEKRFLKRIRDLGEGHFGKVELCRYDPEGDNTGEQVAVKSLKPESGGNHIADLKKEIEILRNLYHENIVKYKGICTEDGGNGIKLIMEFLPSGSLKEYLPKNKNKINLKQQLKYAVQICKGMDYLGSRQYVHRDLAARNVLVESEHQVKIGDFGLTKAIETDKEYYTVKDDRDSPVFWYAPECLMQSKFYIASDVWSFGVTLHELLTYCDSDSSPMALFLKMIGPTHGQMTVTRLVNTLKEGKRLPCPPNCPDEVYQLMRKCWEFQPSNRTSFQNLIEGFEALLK
Description: as §1, §2

[4] = molecular target: T3, JAK2 (Homo sapiens, UniProt O60674); test: Microfluidic mobility shift enzyme assay; type: biochemical
T3 construct: purchased Carna Bioscience, Inc. (Japan)
T3 sequence (O60674 whole entry): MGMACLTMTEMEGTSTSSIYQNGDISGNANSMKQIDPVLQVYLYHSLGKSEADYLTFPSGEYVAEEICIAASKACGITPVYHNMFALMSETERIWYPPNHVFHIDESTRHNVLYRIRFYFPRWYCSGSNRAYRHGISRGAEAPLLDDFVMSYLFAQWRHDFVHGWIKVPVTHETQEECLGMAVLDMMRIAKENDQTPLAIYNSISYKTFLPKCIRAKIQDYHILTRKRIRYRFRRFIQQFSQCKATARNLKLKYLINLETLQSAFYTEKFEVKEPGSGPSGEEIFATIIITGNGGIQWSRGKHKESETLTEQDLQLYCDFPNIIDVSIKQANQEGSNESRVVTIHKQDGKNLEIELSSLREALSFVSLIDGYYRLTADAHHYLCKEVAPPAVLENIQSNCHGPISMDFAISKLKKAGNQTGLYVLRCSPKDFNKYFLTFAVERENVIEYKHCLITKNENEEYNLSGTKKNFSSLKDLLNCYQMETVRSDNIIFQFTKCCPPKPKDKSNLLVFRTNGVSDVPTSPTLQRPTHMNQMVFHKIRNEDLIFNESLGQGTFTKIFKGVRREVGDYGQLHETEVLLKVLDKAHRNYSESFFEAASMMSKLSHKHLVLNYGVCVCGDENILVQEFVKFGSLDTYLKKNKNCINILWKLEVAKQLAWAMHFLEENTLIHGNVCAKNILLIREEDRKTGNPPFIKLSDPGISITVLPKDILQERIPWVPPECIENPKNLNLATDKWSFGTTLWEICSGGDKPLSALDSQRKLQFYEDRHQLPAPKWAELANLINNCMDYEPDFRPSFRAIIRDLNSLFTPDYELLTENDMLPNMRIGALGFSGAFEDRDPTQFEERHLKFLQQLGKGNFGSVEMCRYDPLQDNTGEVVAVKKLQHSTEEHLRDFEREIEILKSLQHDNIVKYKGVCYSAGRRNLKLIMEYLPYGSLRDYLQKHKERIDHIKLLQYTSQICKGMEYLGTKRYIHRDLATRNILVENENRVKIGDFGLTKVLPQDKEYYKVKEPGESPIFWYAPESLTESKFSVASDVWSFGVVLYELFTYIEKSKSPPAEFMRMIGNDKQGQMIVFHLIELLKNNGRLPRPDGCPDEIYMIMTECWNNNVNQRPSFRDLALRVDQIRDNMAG
Description: as §1, §2

[5] = molecular target: T4, Tyk2 (Homo sapiens, UniProt P29597); test: Microfluidic mobility shift enzyme assay; type: biochemical
T4 construct: purchased Carna Bioscience, Inc. (Japan)
T4 sequence (P29597 whole entry): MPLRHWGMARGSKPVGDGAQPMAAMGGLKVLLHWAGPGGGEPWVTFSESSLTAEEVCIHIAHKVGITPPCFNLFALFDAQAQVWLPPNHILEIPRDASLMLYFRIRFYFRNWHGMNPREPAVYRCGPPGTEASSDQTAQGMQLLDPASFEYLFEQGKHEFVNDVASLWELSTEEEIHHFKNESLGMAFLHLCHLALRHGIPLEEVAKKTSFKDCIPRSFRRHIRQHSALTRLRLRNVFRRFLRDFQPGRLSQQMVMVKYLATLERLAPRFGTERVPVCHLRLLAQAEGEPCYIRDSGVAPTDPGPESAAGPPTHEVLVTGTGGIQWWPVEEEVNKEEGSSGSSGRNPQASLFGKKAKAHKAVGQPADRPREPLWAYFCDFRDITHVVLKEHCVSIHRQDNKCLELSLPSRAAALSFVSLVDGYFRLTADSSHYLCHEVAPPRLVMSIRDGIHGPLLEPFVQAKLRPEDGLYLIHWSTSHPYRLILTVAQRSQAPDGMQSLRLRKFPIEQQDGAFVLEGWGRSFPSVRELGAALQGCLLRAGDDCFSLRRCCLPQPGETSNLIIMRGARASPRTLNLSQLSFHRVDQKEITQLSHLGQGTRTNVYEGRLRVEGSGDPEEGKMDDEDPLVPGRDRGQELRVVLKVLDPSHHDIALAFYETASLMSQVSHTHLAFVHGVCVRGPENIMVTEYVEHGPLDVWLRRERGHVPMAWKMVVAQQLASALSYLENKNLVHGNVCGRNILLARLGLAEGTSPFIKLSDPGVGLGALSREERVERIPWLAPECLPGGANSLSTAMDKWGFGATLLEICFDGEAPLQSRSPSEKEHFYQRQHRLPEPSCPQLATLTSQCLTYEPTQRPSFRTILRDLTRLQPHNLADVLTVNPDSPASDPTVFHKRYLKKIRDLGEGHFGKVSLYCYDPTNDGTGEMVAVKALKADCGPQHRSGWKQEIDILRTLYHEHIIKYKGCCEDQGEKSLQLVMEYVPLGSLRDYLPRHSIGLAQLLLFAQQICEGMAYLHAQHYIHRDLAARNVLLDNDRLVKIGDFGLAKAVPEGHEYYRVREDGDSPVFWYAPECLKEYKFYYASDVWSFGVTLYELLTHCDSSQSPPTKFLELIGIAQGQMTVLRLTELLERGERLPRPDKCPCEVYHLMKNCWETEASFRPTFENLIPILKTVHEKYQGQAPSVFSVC
Description: as §1, §2

[6] = test system: NCI-H1650 cells; test: Apoptosis induction assay (Cell Death Detection ELISA); type: cell-based, human; details: for effect of Z-VAD cotreatment on compound-induced oligonucleosomal fragmentation: NCI-H1650 cells, Z-VAD 10 μmol/L; for NCI-H1650 cells that underwent rapid apoptosis: after 8 h
Description: Apoptosis induction assays were performed after 8 or 24 h incubation with compounds using the Cell Death Detection ELISA assay (Roche). Apoptosis induction is represented relative to DMSO-treated controls (set at 1.0). Error bars denote the SEM.

Structure (SMILES)	IC50 [1] [µM]	inhibition of JAK3 kinase activity (in words) [2]	IC50 ([2]; IC50, JAK3 enzyme) [µM]	IC50 [3] [µM]	inhibition of JAK1 kinase activity (in words) [3]	inhibition of JAK2 kinase activity (in words) [4]	IC50 ([4]; IC50, JAK2 enzyme) [µM]	IC50 [5] [µM]	inhibition of Tyk2 kinase activity (in words) [5]	effect of Z-VAD cotreatment on compound-induced oligonucleosomal fragmentation [6]	apoptosis induction (oligonucleosomal fragmentation) ([6]; after 24 h)	IC50 ([2]; JAK3 enzyme, read-out: IC50) [µM]	IC50 ([3]; JAK1 enzyme, read-out: IC50) [µM]	difference in IC50s between JAK2 and Tyk2 [4] [fold]	IC50 ([4]; JAK2 enzyme, read-out: IC50) [µM]	IC50 ([5]; Tyk2 enzyme, read-out: IC50) [µM]	NCI-H1650 cells that underwent rapid apoptosis [6] [%]
CC(C)=CCC/C(C)=C/Cc1c(O)c(CC=C(C)C)c2c(c1O)C(=O)C1=C[C@@H]3C[C@H]4C(C)(C)O[C@@](C/C=C(\C)C=O)(C3=O)[C@@]14O2 [GB49]	3.92 ± 0.13																
CC(C)=CCC/C(C)=C/Cc1c(O)c(CC=C(C)C)c2c(c1O)C(=O)C1=C[C@@H]3C[C@H]4C(C)(C)O[C@@](CC=C(C)C)(C3=O)[C@@]14O2 [GB32]	3.13 ± 0.3	minor inhibition	17.5 ± 1.5	> 40	no effect	minor inhibition	37.3 ± 6.9	> 40	no effect	completely suppressed	significant apoptosis						
CC(C)=CCC[C@@]1(C)C=Cc2c(O)c3c(c(CCC(C)(C)O)c2O1)O[C@]12C(=C[C@@H]4C[C@H]1C(C)(C)O[C@@]2(C/C=C(/C)C(=O)O)C4=O)C3=O [GB39, 33-hydroxyepigambogic acid]	1.26 ± 0.01	significantly inhibited			minor inhibitory effects	significantly inhibited			minor inhibitory effects	completely suppressed		3.8 ± 0.3	12.2 ± 0.3	10	1.7 ± 0.1	13 ± 1.6	> 90
CC(C)=CCC/C(C)=C/Cc1c(O)c(CC=C(C)C)c2c(c1O)C(=O)C1=C[C@@H]3C[C@H]4C(C)(C)O[C@@](C/C=C(\C)C(=O)O)(C3=O)[C@@]14O2 [GB63]	2.66 ± 0.15																
CC(C)=CCC[C@@]1(C)C=Cc2c(O)c3c(c(C/C=C(\C)CO)c2O1)O[C@]12C(=C[C@@H]4C[C@H]1C(C)(C)O[C@@]2(C/C=C(/C)C(=O)O)C4=O)C3=O [GB40, 35-hydroxyepigambogic acid]	1.07 ± 0.04	significantly inhibited			minor inhibitory effects	significantly inhibited			minor inhibitory effects	completely suppressed		3.2 ± 0.2	14.2 ± 0.4	10	1.4 ± 0.1	12.9 ± 0.9	> 90

Source: publication PMC4450297, “Screening Active Compounds from Garcinia Species Native to China Reveals Novel Compounds Targeting the STAT/JAK Signaling Pathway” (BioMed Research International, 2015)
